The source of these data is patent US9359352B2, “Substituted benzimidazoles as PI3 kinase inhibitors” (Intellikine LLC, priority 2010, dated 2016).

Holding throughout (format): biochemical
For assay [1], the target named is T1, PI3K α (Homo sapiens, UniProt P42336).
T1 construct: purchased Upstate
As to the kind of experiment: PI 3-Kinase HTRF inhibition assay, PI3K α. How it is done:
(§1) Commercial kits or systems for assaying PI3-K activities are available. The commercially available kits or systems can be used to screen for inhibitors and/or agonists of PI3-Ks including but not limited to PI 3-Kinase α, β, δ, and γ. An exemplary system is PI 3-Kinase (human) HTRF™ Assay from Upstate. […] Briefly, the assay is a time resolved FRET assay that indirectly measures PIP3 product formed by the activity of a PI3-K. The kinase reaction is performed in a microtitre plate (e.g., a 384 well microtitre plate). The total reaction volume is approximately 20 ul per well. In the first step, each well receives 2 ul of test compound in 20% dimethylsulphoxide resulting in a 2% DMSO final concentration. Next, approximately 14.5 ul of a kinase/PIP2 mixture (diluted in 1× reaction buffer) is added per well for a final concentration of 0.25-0.3 ug/ml kinase and 10 μM PIP2. The plate is scaled and incubated for 15 minutes at room temperature. To start the reaction, 3.5 ul of ATP (diluted in 1× reaction buffer) is added per well for a final concentration of 10 μM ATP. The plate is sealed and incubated for 1 hour at room temperature. The reaction is stopped by adding 5 ul of Stop Solution per well and then 5 ul of Detection Mix is added per well. The plate is sealed, incubated for 1 hour at room temperature, and then read on an appropriate plate reader. Data is analyzed and IC50s are generated using GraphPad Prism 5. For PI3K α, β, δ, and γ, the nM concentration of inhibitor to reach IC50 is provided. […] Similar assays, and others known in the art, can be used to measure the percent inhibition of other kinases, including but not limited to PI3K class II kinases, phosphoinositide 4 kinases (PI4K), and phosphoinositide 5 kinases (PI5K).
In general terms: TR-FRET usually uses a lanthanide donor and a delayed reading to cut background.

In assay [2] the target is T2, PI3K β (Homo sapiens, UniProt P42338).
T2 construct: purchased Upstate
T2 sequence (P42338 whole entry): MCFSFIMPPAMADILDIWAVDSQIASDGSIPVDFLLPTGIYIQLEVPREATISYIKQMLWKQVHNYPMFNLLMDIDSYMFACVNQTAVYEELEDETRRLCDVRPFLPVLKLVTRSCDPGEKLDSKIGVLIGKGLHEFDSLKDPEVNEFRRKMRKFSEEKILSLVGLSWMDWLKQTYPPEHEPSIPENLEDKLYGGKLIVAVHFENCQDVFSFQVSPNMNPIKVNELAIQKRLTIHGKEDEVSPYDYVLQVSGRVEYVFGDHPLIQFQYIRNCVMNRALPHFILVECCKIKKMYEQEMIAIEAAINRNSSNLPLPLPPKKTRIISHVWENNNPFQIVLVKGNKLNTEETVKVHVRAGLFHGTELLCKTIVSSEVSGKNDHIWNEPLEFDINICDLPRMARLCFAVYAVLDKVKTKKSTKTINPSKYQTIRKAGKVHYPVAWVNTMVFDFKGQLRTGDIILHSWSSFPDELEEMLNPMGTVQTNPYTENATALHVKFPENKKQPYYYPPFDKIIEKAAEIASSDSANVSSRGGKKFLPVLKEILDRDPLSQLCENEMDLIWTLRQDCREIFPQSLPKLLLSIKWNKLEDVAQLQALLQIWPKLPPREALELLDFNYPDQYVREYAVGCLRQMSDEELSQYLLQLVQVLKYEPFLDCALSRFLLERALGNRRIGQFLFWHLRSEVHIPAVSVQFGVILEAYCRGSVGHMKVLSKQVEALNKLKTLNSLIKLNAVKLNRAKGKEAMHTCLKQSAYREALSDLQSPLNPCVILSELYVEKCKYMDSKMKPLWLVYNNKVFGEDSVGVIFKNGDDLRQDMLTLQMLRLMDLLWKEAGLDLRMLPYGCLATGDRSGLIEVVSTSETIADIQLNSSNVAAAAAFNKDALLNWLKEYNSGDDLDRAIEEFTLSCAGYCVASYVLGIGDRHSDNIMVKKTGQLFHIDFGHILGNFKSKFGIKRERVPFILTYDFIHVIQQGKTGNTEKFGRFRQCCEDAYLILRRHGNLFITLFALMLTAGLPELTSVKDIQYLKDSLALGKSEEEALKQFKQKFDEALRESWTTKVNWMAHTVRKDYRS
T2 sequence (P27986 whole entry partner): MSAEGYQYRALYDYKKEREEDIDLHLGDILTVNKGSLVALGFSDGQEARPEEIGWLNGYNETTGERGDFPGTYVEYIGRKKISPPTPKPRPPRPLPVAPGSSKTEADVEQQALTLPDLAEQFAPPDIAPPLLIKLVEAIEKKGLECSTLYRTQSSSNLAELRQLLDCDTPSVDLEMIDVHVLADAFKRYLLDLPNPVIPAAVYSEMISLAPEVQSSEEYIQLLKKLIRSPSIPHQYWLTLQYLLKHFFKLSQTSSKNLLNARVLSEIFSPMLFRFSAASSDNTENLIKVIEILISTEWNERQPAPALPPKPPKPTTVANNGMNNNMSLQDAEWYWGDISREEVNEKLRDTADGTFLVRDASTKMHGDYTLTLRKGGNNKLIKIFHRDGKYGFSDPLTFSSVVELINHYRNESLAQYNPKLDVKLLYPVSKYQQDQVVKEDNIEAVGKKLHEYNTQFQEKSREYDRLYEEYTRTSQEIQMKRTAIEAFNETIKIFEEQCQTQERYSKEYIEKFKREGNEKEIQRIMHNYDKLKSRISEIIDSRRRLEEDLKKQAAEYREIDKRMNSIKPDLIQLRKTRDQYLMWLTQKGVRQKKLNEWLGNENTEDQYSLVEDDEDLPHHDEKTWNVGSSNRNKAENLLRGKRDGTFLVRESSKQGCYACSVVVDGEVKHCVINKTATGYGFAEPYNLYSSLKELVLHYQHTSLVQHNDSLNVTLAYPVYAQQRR
Nature of the assay: PI 3-Kinase HTRF inhibition assay, PI3K β. To be noted: in vitro. How it is done:
as §1

Assay [3] has as its target T3, PI3K δ (Homo sapiens, UniProt O00329).
T3 construct: purchased Upstate
As to the kind of experiment: PI 3-Kinase HTRF inhibition assay, PI3K δ. The protocol:
as §1

Assay [4] deals with T4, PI3K γ (Homo sapiens, UniProt P48736).
T4 construct: purchased Upstate
T4 sequence (P48736 whole entry): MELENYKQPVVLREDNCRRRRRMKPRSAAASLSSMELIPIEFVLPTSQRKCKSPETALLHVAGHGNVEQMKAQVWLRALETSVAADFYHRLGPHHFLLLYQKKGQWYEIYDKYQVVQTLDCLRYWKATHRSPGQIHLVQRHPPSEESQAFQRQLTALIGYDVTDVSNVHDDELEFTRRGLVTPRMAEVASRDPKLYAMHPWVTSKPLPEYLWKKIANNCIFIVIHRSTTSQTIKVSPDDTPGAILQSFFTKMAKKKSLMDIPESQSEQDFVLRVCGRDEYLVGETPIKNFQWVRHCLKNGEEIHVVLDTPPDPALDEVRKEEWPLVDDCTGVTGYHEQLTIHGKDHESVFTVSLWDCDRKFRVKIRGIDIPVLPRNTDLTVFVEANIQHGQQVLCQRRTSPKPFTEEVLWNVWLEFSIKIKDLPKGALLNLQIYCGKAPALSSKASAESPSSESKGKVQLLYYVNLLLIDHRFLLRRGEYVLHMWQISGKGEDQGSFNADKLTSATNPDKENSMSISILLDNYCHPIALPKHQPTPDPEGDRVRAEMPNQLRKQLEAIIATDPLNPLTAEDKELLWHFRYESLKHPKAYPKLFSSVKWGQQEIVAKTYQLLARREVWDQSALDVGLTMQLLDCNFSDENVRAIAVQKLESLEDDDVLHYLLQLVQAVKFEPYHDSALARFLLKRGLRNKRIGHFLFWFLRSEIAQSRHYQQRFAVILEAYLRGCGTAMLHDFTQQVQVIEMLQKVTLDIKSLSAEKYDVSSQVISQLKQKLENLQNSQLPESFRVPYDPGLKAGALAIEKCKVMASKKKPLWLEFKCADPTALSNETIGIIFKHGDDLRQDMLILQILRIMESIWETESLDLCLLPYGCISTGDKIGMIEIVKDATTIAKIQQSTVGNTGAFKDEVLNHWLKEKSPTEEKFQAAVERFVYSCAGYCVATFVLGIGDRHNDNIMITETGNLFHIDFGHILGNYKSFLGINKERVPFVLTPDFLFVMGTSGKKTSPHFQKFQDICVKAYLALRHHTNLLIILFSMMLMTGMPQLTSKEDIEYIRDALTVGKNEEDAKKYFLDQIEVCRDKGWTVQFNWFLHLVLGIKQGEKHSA
Nature of the assay: PI 3-Kinase HTRF inhibition assay, PI3K γ. To be noted: in vitro.

Where [5] appears, read: in vitro, read-out: PI3K α IC50.
The mark [6] stands for this setting: in vitro, read-out: PI3K δ IC50.

Read-outs that look alike come from different tables or passages of the source. Bounds are passed on as bounds.

T3 sequence (O00329 whole entry): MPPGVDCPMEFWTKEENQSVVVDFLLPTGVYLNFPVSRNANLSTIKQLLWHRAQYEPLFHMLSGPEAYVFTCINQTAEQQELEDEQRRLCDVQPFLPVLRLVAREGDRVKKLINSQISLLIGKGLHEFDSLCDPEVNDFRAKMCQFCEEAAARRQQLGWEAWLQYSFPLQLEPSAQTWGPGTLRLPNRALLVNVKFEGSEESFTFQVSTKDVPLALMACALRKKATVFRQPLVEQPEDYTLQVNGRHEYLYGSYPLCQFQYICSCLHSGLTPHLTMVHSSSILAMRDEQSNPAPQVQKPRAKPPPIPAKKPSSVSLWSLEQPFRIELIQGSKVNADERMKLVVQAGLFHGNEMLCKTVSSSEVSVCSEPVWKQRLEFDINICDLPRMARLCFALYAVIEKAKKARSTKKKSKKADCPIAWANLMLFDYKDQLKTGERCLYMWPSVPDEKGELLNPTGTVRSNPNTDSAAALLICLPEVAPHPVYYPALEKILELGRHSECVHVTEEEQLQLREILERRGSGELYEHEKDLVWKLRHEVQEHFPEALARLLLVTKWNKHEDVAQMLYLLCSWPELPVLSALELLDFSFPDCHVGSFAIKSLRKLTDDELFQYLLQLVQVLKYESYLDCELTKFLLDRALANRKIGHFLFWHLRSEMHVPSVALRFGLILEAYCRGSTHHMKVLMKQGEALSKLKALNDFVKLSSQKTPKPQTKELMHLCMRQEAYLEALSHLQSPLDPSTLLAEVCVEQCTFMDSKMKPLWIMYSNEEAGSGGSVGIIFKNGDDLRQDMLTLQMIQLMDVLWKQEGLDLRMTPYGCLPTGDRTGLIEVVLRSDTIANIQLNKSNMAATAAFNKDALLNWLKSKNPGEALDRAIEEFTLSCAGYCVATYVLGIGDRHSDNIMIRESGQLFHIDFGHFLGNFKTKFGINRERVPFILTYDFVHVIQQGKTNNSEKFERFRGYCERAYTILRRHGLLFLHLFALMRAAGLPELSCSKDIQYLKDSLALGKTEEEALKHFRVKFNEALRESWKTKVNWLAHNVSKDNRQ
T3 sequence (P27986 whole entry partner): as the sequence (P27986 whole entry partner) above
T1 sequence (P42336 whole entry): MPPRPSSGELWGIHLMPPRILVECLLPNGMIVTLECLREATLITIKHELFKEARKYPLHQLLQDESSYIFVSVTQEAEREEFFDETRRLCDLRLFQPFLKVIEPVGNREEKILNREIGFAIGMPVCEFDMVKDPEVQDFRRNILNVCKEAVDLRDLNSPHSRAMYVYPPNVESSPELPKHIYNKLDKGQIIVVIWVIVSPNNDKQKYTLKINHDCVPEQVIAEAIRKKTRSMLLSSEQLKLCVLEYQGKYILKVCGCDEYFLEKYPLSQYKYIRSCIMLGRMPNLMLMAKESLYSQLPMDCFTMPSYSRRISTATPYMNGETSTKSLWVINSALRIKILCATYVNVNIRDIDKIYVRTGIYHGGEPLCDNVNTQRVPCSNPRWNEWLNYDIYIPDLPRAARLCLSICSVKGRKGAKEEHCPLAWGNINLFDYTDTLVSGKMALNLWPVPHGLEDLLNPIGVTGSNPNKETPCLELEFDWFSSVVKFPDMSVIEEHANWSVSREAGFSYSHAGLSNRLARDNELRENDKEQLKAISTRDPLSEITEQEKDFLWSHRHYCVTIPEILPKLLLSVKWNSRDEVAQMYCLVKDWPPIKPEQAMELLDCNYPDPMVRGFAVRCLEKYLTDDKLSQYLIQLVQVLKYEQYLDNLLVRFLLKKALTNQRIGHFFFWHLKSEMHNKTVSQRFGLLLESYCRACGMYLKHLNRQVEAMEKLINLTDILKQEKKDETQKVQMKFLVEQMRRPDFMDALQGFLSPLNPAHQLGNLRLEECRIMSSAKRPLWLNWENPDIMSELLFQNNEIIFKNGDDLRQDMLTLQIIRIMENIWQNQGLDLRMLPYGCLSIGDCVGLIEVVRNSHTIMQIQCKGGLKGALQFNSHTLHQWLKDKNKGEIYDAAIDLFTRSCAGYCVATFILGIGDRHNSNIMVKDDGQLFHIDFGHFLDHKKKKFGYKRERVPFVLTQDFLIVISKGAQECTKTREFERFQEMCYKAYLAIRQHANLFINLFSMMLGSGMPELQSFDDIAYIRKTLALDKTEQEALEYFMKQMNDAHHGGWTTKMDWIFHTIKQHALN
T1 sequence (P27986 whole entry partner): as the sequence (P27986 whole entry partner) above

`CCOC(=O)N1CCN(c2cnc3ccc(-c4ccc5oc(N)nc5c4)nc3n2)CC1` [Compound 6]: the half-maximal inhibitory concentration (IC50) is less than 0.1 µM in assay [1] (setting [5]), less than 1 µM in assay [2], less than 1 µM in assay [3] (setting [6]) and less than 1 µM in assay [4].
Take `C[C@@H]1CN(C2CN(c3cnc4ccc(-c5ccc6oc(N)nc6c5)nc4n3)C2)CCN1C` [Compound 25]: the IC50 was less than 0.1 µM in assay [1] (setting [5]), greater than 10 µM in assay [2], less than 10 µM in assay [3] (setting [6]) and less than 10 µM in assay [4].
As to `CC(C)N1CCN(C2CN(c3cnc4ccc(-c5ccc6nc(N)[nH]c6c5)nc4c3)C2)CC1` [Compound 85], the IC50 was less than 0.1 µM in assay [1] (setting [5]), greater than 10 µM in assay [2], greater than 10 µM in assay [3] (setting [6]) and greater than 10 µM in assay [4].
Take `Cc1nccn1C1CN(c2cnc3ccc(-c4ccc5oc(N)nc5c4)nc3n2)C1` [Compound 50]: the half-maximal inhibitory concentration (IC50) was less than 0.1 µM in assay [1] (setting [5]), less than 10 µM in assay [2], less than 10 µM in assay [3] (setting [6]) and less than 10 µM in assay [4].
In the case of `C[C@@H](N)C(=O)N1CCN(c2cnc3ccc(-c4ccc5oc(N)nc5c4)nc3n2)CC1` [Compound 31], the half-maximal inhibitory concentration (IC50) in assay [1] (setting [5]) is less than 0.1 µM; in assay [2], less than 10 µM; in assay [3] (setting [6]) it was less than 10 µM; in assay [4] it was less than 1 µM.
As for `Nc1nc2cc(-c3ccc4ncc(N5CC6CCC(C5)O6)cc4n3)ccc2o1` [Compound 59], the IC50 in assay [1] (setting [5]) was less than 0.1 µM; in assay [2], greater than 10 µM; in assay [3] (setting [6]), greater than 10 µM; in assay [4], less than 0.1 µM.
Consider `NCC(=O)N1CCN(c2cnc3ccc(-c4ccc5oc(N)nc5c4)nc3c2)CC1` [Compound 37], for which the IC50 in assay [1] (setting [5]) is less than 0.1 µM; in assay [2], less than 1 µM; in assay [3] (setting [6]), less than 1 µM; in assay [4], less than 1 µM.
As to `Nc1nc2cc(-c3cnc4ccc(N5C6CCC5COC6)nc4c3)ccc2o1` [Compound 81], the 50% inhibitory concentration (IC50) is less than 10 µM in assay [1], greater than 10 µM in assay [2], greater than 10 µM in assay [3] (setting [6]) and less than 10 µM in assay [4].
Take `CN1CCN(C2CN(c3ccc4ncc(-c5ccc6oc(N)nc6c5)cc4n3)C2)CC1` [Compound 84]: the IC50 in assay [1] (setting [5]) was less than 10 µM; in assay [2], greater than 10 µM; in assay [3] (setting [6]), greater than 10 µM; in assay [4] it was greater than 10 µM.
In the case of `C[C@@H]1CN(C2CN(c3cnc4ccc(-c5ccc6nc(N)[nH]c6c5)nc4c3)C2)CCN1C` [Compound 86], the IC50 in assay [1] (setting [5]) is less than 0.1 µM; in assay [2], greater than 10 µM; in assay [3] (setting [6]) it was greater than 10 µM; in assay [4] it was greater than 10 µM.
Regarding `C[C@H](N)C(=O)N1CCN(c2cnc3ccc(-c4ccc5oc(N)nc5c4)nc3n2)CC1` [Compound 30], the IC50 in assay [1] (setting [5]), in assay [2], in assay [3] (setting [6]) and in assay [4] was less than 0.1 µM each time.
For the compound `C[C@H]1CN(c2cnc3ccc(-c4ccc5oc(N)nc5c4)nc3c2)CCN1` [Compound 47], the IC50 in assay [1] (setting [5]) was less than 0.1 µM; in assay [2], less than 0.1 µM; in assay [3] (setting [6]), less than 10 µM; in assay [4], less than 1 µM.
On to `Nc1nc2cc(-c3ccc4ncc(N5CCOCC5)nc4n3)ccc2o1` [Compound 2, 5-(3-morpholinopyrido[2,3-b]pyrazin-6-yl)benzo[d]oxazol-2-amine], for which the IC50 is less than 0.1 µM in assay [1] (setting [5]), less than 1 µM in assay [2], greater than 10 µM in assay [3] (setting [6]) and less than 0.1 µM in assay [4].
For `Nc1nc2cc(-c3ccc4ncc(N5C6CCC5COC6)cc4n3)ccc2o1` [Compound 23], the IC50 in assay [1] (setting [5]) was less than 0.1 µM; in assay [2] it was less than 10 µM; in assay [3] (setting [6]), greater than 10 µM; in assay [4], less than 0.1 µM.
Turning to `CC(C)N1CCN(c2cnc3ccc(-c4ccc5oc(N)nc5c4)nc3n2)CC1` [Compound 32], the half-inhibitory concentration (IC50) in assay [1] (setting [5]) was less than 0.1 µM; in assay [2] it was less than 1 µM; in assay [3] (setting [6]), less than 10 µM; in assay [4], less than 1 µM.
As to `Nc1nc2cc(-c3ccc4ncc(N5CC(N6C7CCC6COC7)C5)cc4n3)ccc2o1` [Compound 67], the concentration for half-maximal inhibition (IC50) is less than 0.1 µM in assay [1] (setting [5]), greater than 10 µM in assay [2], less than 10 µM in assay [3] and less than 1 µM in assay [4].
For the compound `Nc1nc2cc(-c3ccc4ncc(N5CC(N6CCOCC6)C5)cc4n3)ccc2o1` [Compound 53], the half-inhibitory concentration (IC50) in assay [1] (setting [5]) was less than 0.1 µM; in assay [2], less than 10 µM; in assay [3] (setting [6]), less than 10 µM; in assay [4], less than 1 µM.
Consider `Nc1nc2cc(-c3ccc4ncc(N5CC(N6CCN(C7CC7)CC6)C5)nc4n3)ccc2o1` [Compound 69], for which the half-inhibitory concentration (IC50) in assay [1] (setting [5]) was less than 0.1 µM; in assay [2], less than 10 µM; in assay [3] (setting [6]), less than 10 µM; in assay [4], less than 10 µM.
For the compound `Nc1nc2cc(-c3ccc4ncc(N5CCN(C(=O)C6(N)CC6)CC5)cc4n3)ccc2o1` [Compound 42], the half-maximal inhibitory concentration (IC50) in assay [1] (setting [5]) was less than 0.1 µM; in assay [2], less than 1 µM; in assay [3] (setting [6]), less than 1 µM; in assay [4], less than 0.1 µM.
Take `C[C@@H](N)C(=O)N1CCN(c2cnc3ccc(-c4ccc5oc(N)nc5c4)nc3c2)CC1` [Compound 39]: the 50% inhibitory concentration (IC50) in assay [1] (setting [5]) was less than 0.1 µM; in assay [2], less than 0.1 µM; in assay [3] (setting [6]), less than 1 µM; in assay [4], less than 1 µM.
In the case of `CN1CCN(C2CN(c3cnc4ccc(-c5ccc6oc(N)nc6c5)nc4n3)C2)CC1` [Compound 71], the IC50 is less than 0.1 µM in assay [1] (setting [5]), less than 10 µM in assay [2], less than 1 µM in assay [3] (setting [6]) and greater than 10 µM in assay [4].
The like results for `CN1CCN(C2CN(c3cnc4ccc(-c5ccc6nc(N)[nH]c6c5)nc4c3)C2)CC1` [Compound 88] were, in that order, less than 0.1 µM, greater than 10 µM, greater than 10 µM and greater than 10 µM.
Consider `CCN(CC)c1cnc2ccc(-c3ccc4oc(N)nc4c3)nc2n1` [Compound 26], for which the IC50 in assay [1] (setting [5]) was less than 1 µM; in assay [2], greater than 10 µM; in assay [3] (setting [6]), less than 10 µM; in assay [4], less than 1 µM.
As for `C[C@H]1COCCN1c1cnc2ccc(-c3ccc4oc(N)nc4c3)nc2n1` [Compound 15], the 50% inhibitory concentration (IC50) is less than 0.1 µM in assay [1] (setting [5]), less than 10 µM in assay [2], greater than 10 µM in assay [3] (setting [6]) and less than 0.1 µM in assay [4].
In the case of `Nc1nc2cc(-c3cnc4ccc(N5CCOCC5)nc4c3)ccc2o1` [Compound 73, 5-(6-morpholino-1,5-naphthyridin-3-yl)benzo[d]oxazol-2-amine], the IC50 is less than 10 µM in assay [1] (setting [5]), greater than 10 µM in assay [2], greater than 10 µM in assay [3] (setting [6]) and less than 10 µM in assay [4].
For the compound `C[C@H]1CN(C2CN(c3cnc4ccc(-c5ccc6oc(N)nc6c5)nc4c3)C2)CCN1C` [Compound 55], the concentration for half-maximal inhibition (IC50) was less than 0.1 µM in assay [1] (setting [5]), less than 10 µM in assay [2], less than 1 µM in assay [3] (setting [6]) and less than 10 µM in assay [4].
For the compound `CS(=O)(=O)N1CCN(C2CN(c3cnc4ccc(-c5ccc6oc(N)nc6c5)nc4n3)C2)CC1` [Compound 8], the IC50 in assay [1] (setting [5]) is less than 0.1 µM; in assay [2], greater than 10 µM; in assay [3] (setting [6]) it was less than 10 µM; in assay [4], less than 1 µM.
The like results for `Nc1nc2cc(-c3ccc4ncc(C5=CCOCC5)nc4n3)ccc2o1` [Compound 11] were, in that order, less than 0.1 µM, less than 10 µM, greater than 10 µM and less than 0.1 µM.
The like results for `C[C@H]1CN(C2CN(c3cnc4ccc(-c5ccc6oc(N)nc6c5)nc4n3)C2)CCN1C` [Compound 21] were, in that order, less than 0.1 µM, greater than 10 µM, less than 10 µM and greater than 10 µM.
Consider `C[C@H](N)C(=O)N1CCN(c2cnc3ccc(-c4ccc5oc(N)nc5c4)nc3c2)CC1` [Compound 38], for which the IC50 is less than 0.1 µM in assay [1] (setting [5]), less than 1 µM in assay [2], less than 1 µM in assay [3] (setting [6]) and less than 1 µM in assay [4].
`C[C@@H]1CN(C2CN(c3cnc4ccc(-c5ccc6oc(N)nc6c5)nc4n3)C2)CCN1` [Compound 12]: the IC50 in assay [1] (setting [5]) was less than 0.1 µM; in assay [2], greater than 10 µM; in assay [3] (setting [6]), less than 10 µM; in assay [4], greater than 10 µM.
For the compound `Nc1nc2cc(-c3ccc4ncc(N5CC(N6C7CCC6COC7)C5)nc4n3)ccc2o1` [Compound 51], the half-maximal inhibitory concentration (IC50) was less than 10 µM in assay [1] (setting [5]), greater than 10 µM in assay [2], greater than 10 µM in assay [3] (setting [6]) and greater than 10 µM in assay [4].
`C[C@H]1CN(c2cnc3ccc(-c4ccc5oc(N)nc5c4)nc3n2)CCN1` [Compound 1]: the IC50 in assay [1] (setting [5]) was less than 1 µM; in assay [2], less than 0.1 µM; in assay [3] (setting [6]), less than 10 µM; in assay [4] it was less than 10 µM.
Turning to `CN1CCN(c2cnc3ccc(-c4ccc5oc(N)nc5c4)nc3c2)CC1` [Compound 24], the 50% inhibitory concentration (IC50) in assay [1] (setting [5]) was less than 0.1 µM; in assay [2], less than 0.1 µM; in assay [3] (setting [6]), less than 10 µM; in assay [4] it was less than 1 µM.

In general, IC50 refers to the concentration needed to halve the response being measured.
